This is an account of results in article PMC7583591 (Computational Biology and Chemistry, 2020).

The test addresses SARS-CoV-2 M^pro (Severe acute respiratory syndrome coronavirus 2, UniProt P0DTD1). The test is described as follows: biochemical. The following applies: for inhibition at 50 µM: read-out: % Protease inhibition at 50 μM ligand concentration.

In general, IC50 refers to the concentration that gives 50% inhibition. A lower IC50 goes with greater potency. On to `Cc1cc(O)c2c(=O)c3c(O)cc(O)c4c5c(O)cc(O)c6c(=O)c7c(O)cc(C)c8c1c2c(c34)c(c78)c65` [Hypericin], for which 63.6 ± 5.7 µM corresponded to half-maximal inhibition (IC50) and the inhibition at 50 µM was 42.8 ± 8.2%.
On the same counts, the results for `C[S@@+]([O-])CCCCN=C=S` [L-sulforaphane] are above 128 µM and 8.4 ± 2.7%.
On the same counts, the results for `Oc1ccc(/C=C/c2cc(O)cc(O)c2)cc1` [Resveratrol] are above 128 µM and 1.8 ± 0.9%.
On to `O=C(Nc1ccccc1-c1cn2c(CN3CCNCC3)csc2n1)c1cnc2ccccc2n1` [SRT1720], for which, for the setting “50 μM”, the “% Protease inhibition at 50 μM ligand concentration” value was determined as 9.3 ± 2.2%.
